Source: the supplement of paper PMC11061612

Key:
Assay in all cases: Bliss excess, mean over the matrix (fraction); higher = more synergy
[1] = system: HT-1197 (Bladder Carcinoma)
In short: (§1)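 Bliss excess equals the observed combination effect minus the expected value EA + EB − EA·EB, where EA and EB are the effects of each agent alone. Combination Emax is the second-highest inhibition within the matrix. Inhibition was scaled from CellTiter-Glo 2.0 luminescence, with 0 set by vehicle wells and 1 by blank wells, after 72 hours of two-drug dosing of cells plated in 1536-well plates.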

[2] = system: Daudi (Burkitt's Lymphoma)
In short: as §1

[3] = system: NCI-H2170 (Squamous Cell Lung Carcinoma)
In short: as §1

DK-MG (Glioblastoma) = system: DK-MG (Glioblastoma)
In short: as §1

[4] = system: SCC90 (Head and Neck Carcinoma)
In short: as §1

[5] = system: NCI-H1944 (Lung Adenocarcinoma)
In short: as §1

[6] = system: RS4-11 (B-Lymphoblastic Leukemia)
In short: as §1

[7] = system: SNU-1 (Gastric Carcinoma)
In short: as §1

[8] = system: SBC-5 (Small Cell Lung Carcinoma)
In short: as §1

SK-N-DZ (Neuroblastoma) = system: SK-N-DZ (Neuroblastoma)
In short: as §1

C32 (Melanoma) = system: C32 (Melanoma)
In short: as §1

[9] = system: SUP-HD1 (Hodgkin's Lymphoma)
In short: as §1

GCIY (Gastric Carcinoma) = system: GCIY (Gastric Carcinoma)
In short: as §1

[10] = system: SBC-3 (Small Cell Lung Carcinoma)
In short: as §1

[11] = system: BC-1 (B-Cell Non-Hodgkin's Lymphoma)
In short: as §1

[12] = system: RPMI-8402 (T-Lymphoblastic Leukemia)
In short: as §1

[13] = system: SW1463 (Colorectal Carcinoma)
In short: as §1

[14] = system: OVKATE (Ovarian Carcinoma)
In short: as §1

[15] = system: COR-L105 (Lung Adenocarcinoma)
In short: as §1

[16] = system: NCI-H1435 (Non-Small Cell Lung Carcinoma)
In short: as §1

| Structure (SMILES) | Bliss excess [1] | Bliss excess [2] | Bliss excess [3] | Bliss excess (DK-MG (Glioblastoma)) | Bliss excess [4] | Bliss excess [5] | Bliss excess [6] | Bliss excess [7] | Bliss excess [8] | Bliss excess (SK-N-DZ (Neuroblastoma)) | Bliss excess (C32 (Melanoma)) | Bliss excess [9] | Bliss excess (GCIY (Gastric Carcinoma)) | Bliss excess [10] | Bliss excess [11] | Bliss excess [12] | Bliss excess [13] | Bliss excess [14] | Bliss excess [15] | Bliss excess [16] |
| --- | --- | --- | --- | --- | --- | --- | --- | --- | --- | --- | --- | --- | --- | --- | --- | --- | --- | --- | --- | --- |
| COc1nnc2ccc(N3CCC(c4ccc(OCCN5CCN(C)C(=O)[C@H]5C)cc4)CC3)nn12 [AZD5153] + CN(CC[C@H](CSC1=CC=CC=C1)NC2=C(C=C(C=C2)S(=O)(=O)NC(=O)C3=CC=C(C=C3)N4CCC(CC4)[C@H](C5=CC=CC=C5C6=CC=C(C=C6)Cl)O)S(=O)(=O)C(F)(F)F)CCO [AZD4320] (first compound max 1 µM, 7x7, partner max 1 µM) | 0.073 | 0.0159 | 0.0175 | 0.0382 | 0.021 | 0.0269 | 0.0211 | 0.0023 | -0.0012 | -0.0212 | 0.0176 | -0.0094 |  |  |  |  |  |  |  |  |
| NC1(C(=O)N[C@@H](CCO)c2ccc(Cl)cc2)CCN(c2ncnc3[nH]ccc23)CC1 [Capivasertib] + CC(C)n1c(=O)n(C)c2cnc3cc(F)c(-c4ccc(OCCCN5CCCCC5)nc4)cc3c21 [AZD1390] (first compound max 10 µM, 7x7, partner max 0.3 µM) | -0.0388 | -0.0326 | -0.0679 | -0.0847 | -0.0484 | -0.0893 | 0.0078 | -0.079 | -0.0792 | -0.0605 | -0.0343 | -0.136 | -0.0841 | -0.0144 | -0.0175 | -0.0456 | -0.0196 | -0.0549 | -0.0635 | -0.0336 |
| Cc1c2c(nn1C)CSCc1cc(n(C)n1)CSc1cc(c3ccccc3c1)OCCCc1c(C(=O)O)n(C)c3c-2c(Cl)ccc13 [AZD5991] + CC1(C)CCC(CN2CCN(c3ccc(C(=O)NS(=O)(=O)c4ccc(NCC5CCOCC5)c([N+](=O)[O-])c4)c(Oc4cnc5[nH]ccc5c4)c3)CC2)=C(c2ccc(Cl)cc2)C1 [Venetoclax] (first compound max 1 µM, 7x7, partner max 1 µM) | -0.0257 | 0.0382 | -0.0333 | -0.0696 | 0.0246 | 0.0091 | 0.0963 | 0.136 | -0.0218 | 0.0428 | 0.0147 | 0.0788 | 0.0076 | 0.0727 | 0.0493 | 0.035 | -0.0589 | -0.0527 | -0.043 | 0.0174 |
| CCN(CCO)CCCOc1ccc2c(Nc3cc(CC(=O)Nc4cccc(F)c4)[nH]n3)ncnc2c1 [AZD2811] + O=C(c1cc(Cc2n[nH]c(=O)c3ccccc23)ccc1F)N1CCN(C(=O)C2CC2)CC1 [Olaparib] (first compound max 1 µM, 7x7, partner max 10 µM) | 0.0045 | 0.104 | 0.0044 | 0.0024 | 0.0459 | 0.0069 | 0.0327 | 0.0233 | 0.033 | -0.0696 | -0.0056 | 0.111 | -0.0066 | 0.0475 | -0.0401 | -0.0279 | 0.0014 | -0.0481 | -0.0311 | 0.0111 |
| CCc1c2c(nc3ccc(O)cc13)-c1cc3c(c(=O)n1C2)COC(=O)[C@]3(O)CC [SN-38] + CN(C)CCCOc1ccc(-c2ccc3ncc4c(c3c2)n(C2CCOCC2)c(=O)n4C)cn1 [AZD0156] (first compound max 0.3 µM, 7x7, partner max 1 µM) | -0.0537 | 0.0078 | 0.0296 | -0.0007 | 0.0059 | -0.0343 | -0.0347 | 0.0303 | 0.0245 | 0.0604 | 0.0537 | -0.0579 | 0.0057 | -0.0894 | 0.0158 | 0.073 | 0.0296 | -0.0763 | -0.0799 | -0.026 |
| CN(C)CCCOc1ccc(-c2ccc3ncc4c(c3c2)n(C2CCOCC2)c(=O)n4C)cn1 [AZD0156] + CCN(CCO)CCCOc1ccc2c(Nc3cc(CC(=O)Nc4cccc(F)c4)[nH]n3)ncnc2c1 [AZD2811] (first compound max 1 µM, 7x7, partner max 1 µM) | -0.0376 | 0.107 | -0.0136 | 0.0081 | -0.0021 | -0.0077 | 0.0512 | 0.093 | 0.0184 | 0.0526 | -0.0213 | 0.0327 | -0.0301 | -0.0422 | 0.0234 | -0.0022 | -0.0322 | -0.0648 | -0.0457 | -0.0219 |
| CC1(C)CCC(CN2CCN(c3ccc(C(=O)NS(=O)(=O)c4ccc(NCC5CCOCC5)c([N+](=O)[O-])c4)c(Oc4cnc5[nH]ccc5c4)c3)CC2)=C(c2ccc(Cl)cc2)C1 [Venetoclax] + CCN(CCO)CCCOc1ccc2c(Nc3cc(CC(=O)Nc4cccc(F)c4)[nH]n3)ncnc2c1 [AZD2811] (first compound max 1 µM, 7x7, partner max 1 µM) | -0.0204 | 0.005 | -0.0185 | -0.0784 | 0.169 | -0.0272 | 0.003 | 0.0266 | 0.0161 | 0.0269 | -0.0014 | -0.0195 | -0.0468 | 0.0166 | 0.111 | -0.0241 | -0.0389 | -0.0661 | -0.0608 | 0.0104 |
| COc1nnc2ccc(N3CCC(c4ccc(OCCN5CCN(C)C(=O)[C@H]5C)cc4)CC3)nn12 [AZD5153] + C=CCn1c(=O)c2cnc(Nc3ccc(N4CCN(C)CC4)cc3)nc2n1-c1cccc(C(C)(C)O)n1 [AZD1775] (first compound max 1 µM, partner max 1 µM) | -0.0045 | -0.0642 | 0.06 | -0.0209 | -0.0282 | 0.0333 | 0.0184 | -0.0873 | -0.015 | -0.0084 | -0.0426 | -0.114 | -0.0136 | -0.0111 | -0.048 | -0.0212 | -0.101 | -0.0373 | -0.0063 | 0.0179 |
| CN(C)CCCOc1ccc(-c2ccc3ncc4c(c3c2)n(C2CCOCC2)c(=O)n4C)cn1 [AZD0156] + O=C(c1cc(Cc2n[nH]c(=O)c3ccccc23)ccc1F)N1CCN(C(=O)C2CC2)CC1 [Olaparib] (first compound max 3 µM, partner max 3 µM) | -0.0404 | 0.0672 | 0.0947 | 0.0012 | -0.0621 | 0.106 | 0.104 | 0.032 | 0.0732 | -0.0533 | -0.035 | -0.039 | 0.0703 | 0.206 | 0.0648 | 0.244 | -0.035 | 0.0008 | 0.0527 | -0.0277 |
| C[C@@H]1COCCN1c1cc(C2([S@](C)(=N)=O)CC2)nc(-c2ccnc3[nH]ccc23)n1 [AZD6738] + O=C(c1cc(Cc2n[nH]c(=O)c3ccccc23)ccc1F)N1CCN(C(=O)C2CC2)CC1 [Olaparib] (first compound max 10 µM, 7x7, partner max 10 µM) | -0.0042 | -0.0239 | -0.0373 | 0.0079 | 0.021 | 0.0194 | -0.0365 | -0.0358 | 0.0025 | -0.0019 | 0.0019 | -0.054 | -0.0433 | -0.0328 | -0.0041 | 0.013 |  | -0.0115 | -0.0435 | 0.0203 |
| Cc1c2c(nn1C)CSCc1cc(n(C)n1)CSc1cc(c3ccccc3c1)OCCCc1c(C(=O)O)n(C)c3c-2c(Cl)ccc13 [AZD5991] + C[C@@H]1COCCN1C2=NC(=NC(=C2)C3(CC3)[S@](=N)(=O)C)C4=C5C=CNC5=NC=C4 [AZD6738] (first compound max 1 µM, 7x7, partner max 10 µM) | -0.104 | 0.0874 | 0.0272 | 0.046 | 0.0141 |  | -0.0197 | 0.035 | 0.0509 | -0.0078 | 0.0531 | -0.0279 | -0.0184 | 0.0405 | -0.0396 | -0.0027 | -0.023 | -0.0421 | -0.0407 | 0.0488 |
| C=CCn1c(=O)c2cnc(Nc3ccc(N4CCN(C)CC4)cc3)nc2n1-c1cccc(C(C)(C)O)n1 [AZD1775] + C[C@@H]1COCCN1C2=NC(=NC(=C2)C3(CC3)[S@](=N)(=O)C)C4=C5C=CNC5=NC=C4 [AZD6738] (first compound max 1 µM, partner max 10 µM) | -0.0057 | 0.0329 | -0.0253 | -0.0342 | 0.0167 | 0.0456 | 0.0188 |  | 0.0037 | 0.0094 | 0.0073 | -0.0282 | 0.0091 | 0.0197 | 0.0338 | 0.0379 | -0.0807 | -0.0703 | -0.0411 | 0.0291 |
| CC(=O)c1c(C)c2cnc(Nc3ccc(N4CCNCC4)cn3)nc2n(C2CCCC2)c1=O [Palbociclib] + CN(CC[C@H](CSC1=CC=CC=C1)NC2=C(C=C(C=C2)S(=O)(=O)NC(=O)C3=CC=C(C=C3)N4CCC(CC4)[C@H](C5=CC=CC=C5C6=CC=C(C=C6)Cl)O)S(=O)(=O)C(F)(F)F)CCO [AZD4320] (first compound max 10 µM, 7x7, partner max 1 µM) | -0.0184 | 0.0218 | -0.0809 | -0.0456 | -0.0407 | -0.0915 | -0.0308 | -0.066 | -0.0715 | 0.0814 | -0.0713 | -0.0407 |  |  |  |  |  |  |  |  |
| Cc1c2c(nn1C)CSCc1cc(n(C)n1)CSc1cc(c3ccccc3c1)OCCCc1c(C(=O)O)n(C)c3c-2c(Cl)ccc13 [AZD5991] + CN(C)CCCOc1ccc(-c2ccc3ncc4c(c3c2)n(C2CCOCC2)c(=O)n4C)cn1 [AZD0156] (first compound max 1 µM, 7x7, partner max 1 µM) | -0.0357 | 0.0362 | -0.0237 | -0.0518 | 0.0172 | 0.0049 | -0.0177 | -0.0144 | 0.0387 | 0.0063 | -0.0076 | -0.122 |  | -0.0128 | 0.0274 | -0.0536 | -0.0212 | -0.0708 | -0.0139 | 0.0719 |
